Laboratory results: patent US20260083864A1, “CONTRAST AGENTS FOR USE IN DIAGNOSTIC COMPUTED TOMOGRAPHY IMAGING” (Bayer Aktiengesellschaft, priority 2022, published 2026)

Legend:
OATP1B1 = target: T1, OATP1B1 (Homo sapiens, UniProt Q9Y6L6); experiment: Uptake into stable transfected OATP1B1 HEK 293 cells; type: cell-based; conditions: for Uptake into OATP1B1-HEK 293 cells: 40 min incubation, relative to RC1 (Gd-EOB-DTPA); for Inhibition Rifampicine: uptake into OATP1B1-HEK 293 cells
T1 sequence (Q9Y6L6 1-691): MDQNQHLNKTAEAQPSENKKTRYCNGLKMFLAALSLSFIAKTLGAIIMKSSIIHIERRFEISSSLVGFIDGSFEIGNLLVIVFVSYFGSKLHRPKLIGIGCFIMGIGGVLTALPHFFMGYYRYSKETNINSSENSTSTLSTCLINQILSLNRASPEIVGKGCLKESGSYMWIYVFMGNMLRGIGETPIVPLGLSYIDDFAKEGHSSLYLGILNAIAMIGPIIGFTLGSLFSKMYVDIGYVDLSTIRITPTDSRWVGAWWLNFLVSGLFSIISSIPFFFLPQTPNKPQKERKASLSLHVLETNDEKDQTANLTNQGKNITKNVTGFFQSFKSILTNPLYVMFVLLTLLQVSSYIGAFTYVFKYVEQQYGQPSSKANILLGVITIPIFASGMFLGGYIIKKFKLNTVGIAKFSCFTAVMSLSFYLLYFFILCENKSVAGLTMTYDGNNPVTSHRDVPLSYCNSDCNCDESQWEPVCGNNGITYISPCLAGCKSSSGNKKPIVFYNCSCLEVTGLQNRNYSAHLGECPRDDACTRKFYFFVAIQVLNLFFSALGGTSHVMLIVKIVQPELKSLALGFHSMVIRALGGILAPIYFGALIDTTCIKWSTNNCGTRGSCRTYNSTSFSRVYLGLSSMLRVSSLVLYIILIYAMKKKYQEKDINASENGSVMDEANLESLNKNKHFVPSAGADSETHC
How it was run: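 Uptake measured in triplicate after a 40 min, unshaken exposure of OATP1B1-expressing HEK293 cells to 100 µM (final) compound in transport buffer. Cold PBS wash stopped uptake; Gd-EOB-DTPA served as reference standard within each plate.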

[1] = Complex stability (transmetallation) against Zn2+ in phosphate buffer; conditions: 72 hours, 2.5 mM Zn^2+, 26 mM phosphate buffer, 37° C., pH 7.4
Text: If test compounds are instable under these conditions, transmetallation during this test would lead to the formation of the Zn^2+ complex of the test item, while Gd^3+ is released and precipitated as highly insoluble GdPO4.

[2] = tested on: freshly isolated rat hepatocytes; experiment: Uptake into freshly isolated rat hepatocytes; conditions: for Uptake rat hepatocytes: 100 μmol Gd/L, 10 min, 37° C., relative to RC1 (Gd-EOB-DTPA); for Inhibition Rifampicine: rat hepatocyte uptake, test item and Rifampicine 1:1, each 100 μM
Procedure: After incubation the adherent hepatocytes were washed once with 37° C. Hepes carbonate transport buffer (500 μL/well). The test items and RC1 were prepared from stock solutions (180 to 500 mM concentration) in Hepes carbonate transport buffer at pH 7.4 to reach a final concentration of 100 μmol Gd/L. The specific uptake of the test item or RC1 into rat hepatocytes via OATP1B1 and OATP1B3 was challenged using a known OATP1B1/1B3 inhibitor (Rifampicine, Fa. Sigma R3501, test item and inhibitor 1:1 each 100 μM final concentration). The prepared rat hepatocyte plates were incubated with test solutions (500 μL/well) at 37° C. for 10 min using a thermoshaker (Fa. Grant Bio, PHMP). Triplicates were performed for each test item. After incubating the cells were washed once with cold PBS buffer (Fa. Gibco, Dulbeccos PBS (+)). After washing the intact hepatocytes were lysed by addition of 500 μL cold 0.01% Triton-X 100 in Millipore water for 1 h. […] As a reference standard RC1 is used in the same well plate. The hepatocyte uptake of the test compound is calculated relative to RC1 (resulting in the unit % of RC1).

[3] = Relaxivity measurements at 1.41 T in water; type: physicochemical; conditions: 37° C., normalized to Gd
How it was run: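 T1 by inversion recovery and T2 by CPMG at 1.41 T (60 MHz), 37° C, relaxation delay ≥5×T1. Three Gd concentrations between 0.05 and 2 mM; relaxivities derived from measured relaxation rates in water.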

OATP1B3 = target: T2, OATP1B3 (Homo sapiens, UniProt Q9NPD5); experiment: Uptake into stable transfected OATP1B3 HEK 293 cells; type: cell-based; conditions: for Uptake into OATP1B3-HEK 293 cells: 40 min incubation, relative to RC1 (Gd-EOB-DTPA); for Inhibition Rifampicine: uptake into OATP1B3-HEK 293 cells
T2 sequence (Q9NPD5 1-702): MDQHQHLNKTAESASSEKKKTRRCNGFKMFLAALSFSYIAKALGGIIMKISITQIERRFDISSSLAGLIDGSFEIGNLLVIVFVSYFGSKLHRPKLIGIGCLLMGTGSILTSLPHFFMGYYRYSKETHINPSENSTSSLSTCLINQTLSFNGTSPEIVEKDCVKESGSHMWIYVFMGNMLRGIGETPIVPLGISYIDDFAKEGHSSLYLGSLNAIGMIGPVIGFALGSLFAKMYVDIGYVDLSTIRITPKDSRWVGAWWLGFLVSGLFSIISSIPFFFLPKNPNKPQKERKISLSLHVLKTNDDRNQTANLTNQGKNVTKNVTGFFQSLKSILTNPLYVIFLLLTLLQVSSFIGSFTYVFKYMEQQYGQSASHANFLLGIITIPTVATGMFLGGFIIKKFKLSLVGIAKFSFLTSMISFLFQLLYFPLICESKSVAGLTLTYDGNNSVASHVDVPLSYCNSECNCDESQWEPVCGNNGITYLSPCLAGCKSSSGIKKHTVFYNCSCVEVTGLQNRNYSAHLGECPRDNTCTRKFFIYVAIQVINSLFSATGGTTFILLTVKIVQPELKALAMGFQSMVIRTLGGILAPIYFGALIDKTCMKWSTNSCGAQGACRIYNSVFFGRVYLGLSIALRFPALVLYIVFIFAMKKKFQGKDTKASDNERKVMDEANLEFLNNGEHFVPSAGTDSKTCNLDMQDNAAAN
How it was run: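 HEK 293 cells stably transfected with human OATP1B3 were incubated for 40 min with test items at 100 μM final in transport buffer, in triplicate, then washed with cold PBS. Gadoxetate (Gd-EOB-DTPA) served as the reference standard on the same plate.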

[4] = Partition coefficient (log P butanol/buffer); type: physicochemical; conditions: 1-butanol / 50 mM Tris-HCl, pH 7.4, room temperature
[5] = Relaxivity measurements at 1.41 T in human plasma; type: physicochemical; conditions: 37° C., normalized to Gd
How it was run: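 T1 determined by inversion recovery (8 inversion-time steps) and T2 by CPMG sequence, both with relaxation delay ≥5×T1. Each relaxivity used three Gd concentrations between 0.05 and 2 mM. Relaxivities were derived from relaxation rates measured in water and plasma.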

[6] = Water solubility in aqueous buffer; conditions: aqueous buffer 10 mM Tris-HCl, pH 7.4, 20° C.
Procedure: The solid compounds were added stepwise to the buffer solution. More substance is added once all the suspended material is dissolved until an equilibrium between undissolved and dissolved substance is reached. The suspension was mixed using a shaker (Heidolph Reax 2000) and treated 5 min in an ultrasound bath (Bandelin, Sonorex Super RK255H).

SMILES | Uptake into OATP1B1-HEK 293 cells (OATP1B1) | Inhibition Rifampicine (OATP1B1) [% inhibition] | Transmetallation stability [1] [%] | Uptake rat hepatocytes [2] | Inhibition Rifampicine [2] [% inhibition] | r1 water [3] [L/mmol/s] | Uptake into OATP1B3-HEK 293 cells (OATP1B3) | Inhibition Rifampicine (OATP1B3) [% inhibition] | Log P (partition coefficient butanol/buffer) [4] | r1 human plasma [5] [L/mmol/s] | Solubility [6] [mM]
CCOCCOCCOc1ccc(CC(C(=O)O)N2CCN(CC(=O)[O-])CCN(CC(=O)[O-])CCN(CC(=O)[O-])CC2)cn1.[Gd+3] (centres unmarked) [Example 16, gadolinium 2,2′,2″-{10-[1-carboxy-2-{6-[2-(2-ethoxyethoxy)ethoxy]pyridin-3-yl}ethyl]-1,4,7,10-tetraazacyclododecane-1,4,7-triyl}triacetate] | 66 % of RC1 | 35 | 101 | 16 % of RC1 | 92 | 4.4 | 25 % of RC1 | 94 | −1.81 | 6.2 | >416
O=C([O-])CN1CCN(CC(=O)[O-])CCN(C(Cc2ccc(OCC(F)(F)C(F)F)cc2)C(=O)O)CCN(CC(=O)[O-])CC1.[Gd+3] (centres unmarked) [Example 46, gadolinium 2,2′,2″-(10-{1-carboxy-2-[4-(2,2,3,3-tetrafluoropropoxy)phenyl]ethyl}-1,4,7,10-tetraazacyclododecane-1,4,7-triyl)triacetate] | 356 % of RC1 | 95 | 101 | 106 % of RC1 | 90 | 3.5 | 43 % of RC1 | 97 | −0.57 | 10.8 | >263
CCCCOc1ccc(CCC[C@@H](C(=O)O)N2CCN(CC(=O)[O-])CCN(CC(=O)[O-])CCN(CC(=O)[O-])CC2)cc1.[Gd+3] [Example 31, gadolinium 2,2′,2″-{10-[(1S)-4-(4-butoxyphenyl)-1-carboxybutyl]-1,4,7,10-tetraazacyclododecane-1,4,7-triyl}triacetate] | 1919 % of RC1 | 98 | 102 | 87 % of RC1 | 94 | 4.4 | 194 % of RC1 | 99 | 0.20 | 15.8 | >255
COCC(C(=O)O)N1CCN(CC(=O)[O-])CCN(C(Cc2ccc(OCC(F)(F)C(F)F)cc2)C(=O)[O-])CCN(CC(=O)[O-])CC1.[Gd+3] (centres unmarked) [Example 45, gadolinium-2-{4,10-bis(carboxylatomethyl)-7-[1-carboxy-2-methoxyethyl]-1,4,7,10-tetraazacyclododecan-1-yl}-3-[4-(2,2,3,3-tetrafluoropropoxy)phenyl]propanoate] | 492 % of RC1 | 95 | 100 | 68 % of RC1 | 82 | 4.5 | 106 % of RC1 | 98 | −0.36 | 11.4 | >63
CCOc1ccc(CCCC(C(=O)O)N2CCN(CC(=O)[O-])CCN(CC(=O)[O-])CCN(CC(=O)[O-])CC2)cc1.[Gd+3] (centres unmarked) [Example 28, gadolinium 2,2′,2″-{10-[1-carboxy-4-(4-ethoxyphenyl)butyl]-1,4,7,10-tetraazacyclododecane-1,4,7-triyl}triacetate] | 294 % of RC1 | 94 | 101 | 72 % of RC1 | 98 | 4.4 | 36 % of RC1 | 97 | −0.71 | 10.6 | >194
CCOCCOCCOc1ccc(C[C@H](C(=O)O)N2CCN(CC(=O)[O-])CCN(CC(=O)[O-])CCN(CC(=O)[O-])CC2)cc1.[Gd+3] [Example 4, gadolinium 2,2′,2″-{10-[(1R)-1-carboxy-2-{4-[2-(2-ethoxyethoxy)ethoxy]phenyl}ethyl]-1,4,7,10-tetraazacyclododecane-1,4,7-triyl}triacetate] | 126 % of RC1 | 40 | 100 | 72 % of RC1 | 98 | 4.2 | 58 % of RC1 | 98 | −1.61 | 6.5 | >75
CCOCCOc1ccc(CC(C(=O)O)N2CCN(CC(=O)[O-])CCN(C(COC)C(=O)[O-])CCN(CC(=O)[O-])CC2)cc1.[Gd+3] (centres unmarked) [Example 38, gadolinium 2-[7-{1-carboxy-2-[4-(2-ethoxyethoxy)phenyl]ethyl}-4,10-bis(carboxylatomethyl)-1,4,7,10-tetraazacyclododecan-1-yl]-3-methoxypropanoate] | 137 % of RC1 | 65 | 97 | 62 % of RC1 | 94 | 5.6 | 24 % of RC1 | 94 | −1.41 | 7.5 | >103
